According to US6677302B2, “Compositions and methods for the treatment of viral disorders” (The Trustees of Boston University, priority 1996, dated 2004):

System: EBV+ and EBV− cell lines (X50-7, Akata, HPB-ALL, Nalm-6)
Assay: Growth of EBV+ and EBV− cell lines
Format: cell-based, human
Excerpt: In some experiments sodium was used instead of arginine to neutralize butyric acid. […] Cell lines used were X50-7, a latent EBV+ B-cell lymphoma; Akata, a producer EBV+ Burkitt's lymphoma; HPB-ALL, a T-cell line; and Nalm-6, an EBV− B-cell line. Growth curves for X50-7 cells in different concentrations of sodium butyrate are shown in FIG. 8b and the growth curves for HPB-ALL cells in different concentrations of sodium butyrate are shown in FIG. 8c.

**Q.** Which results are given for arginine butyrate?
**A.** effect on cell growth (1 mM): cytostatic to some cell lines and permitted normal cell growth in others; effect on cell growth (2 mM and 3 mM): cytocidal to most EBV+ and EBV− cell lines
